≈ marks a conversion by molar mass, not a printed value.
Assays:
[1] = target: T1, Carnitine O-palmitoyltransferase 1, muscle isoform (Homo sapiens, UniProt Q92523); assay: SUPPLEMENTARY: Inhibition of Carnitine palmitoyltransferase 1, muscle isoform; parameters: species or system Muscle tissue
T1 sequence (Q92523 whole entry): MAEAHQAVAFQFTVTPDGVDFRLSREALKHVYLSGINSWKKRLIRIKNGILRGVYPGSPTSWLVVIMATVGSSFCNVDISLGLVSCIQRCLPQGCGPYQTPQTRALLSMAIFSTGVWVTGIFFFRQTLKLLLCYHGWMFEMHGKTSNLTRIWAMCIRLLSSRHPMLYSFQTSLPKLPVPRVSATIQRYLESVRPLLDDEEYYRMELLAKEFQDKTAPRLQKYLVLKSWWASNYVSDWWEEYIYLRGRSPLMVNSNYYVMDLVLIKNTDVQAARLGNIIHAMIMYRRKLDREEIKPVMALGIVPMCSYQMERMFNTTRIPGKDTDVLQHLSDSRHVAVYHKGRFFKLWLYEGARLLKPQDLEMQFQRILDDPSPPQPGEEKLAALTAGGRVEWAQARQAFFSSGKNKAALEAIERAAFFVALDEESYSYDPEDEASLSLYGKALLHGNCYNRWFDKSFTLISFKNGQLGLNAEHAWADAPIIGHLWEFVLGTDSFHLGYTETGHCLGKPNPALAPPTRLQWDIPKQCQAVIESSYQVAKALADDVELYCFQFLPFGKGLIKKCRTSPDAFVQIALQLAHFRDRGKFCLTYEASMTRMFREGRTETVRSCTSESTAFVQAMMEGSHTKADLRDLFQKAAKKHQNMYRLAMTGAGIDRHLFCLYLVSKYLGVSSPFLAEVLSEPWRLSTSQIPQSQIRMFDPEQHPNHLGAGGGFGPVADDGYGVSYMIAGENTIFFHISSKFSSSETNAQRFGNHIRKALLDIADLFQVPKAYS

[2] = target: T2, Carnitine O-palmitoyltransferase 2, mitochondrial (Homo sapiens, UniProt P23786); assay: (§1) SUPPLEMENTARY: Inhibition of Carnitine palmitoyltransferase 2
T2 sequence (P23786 whole entry): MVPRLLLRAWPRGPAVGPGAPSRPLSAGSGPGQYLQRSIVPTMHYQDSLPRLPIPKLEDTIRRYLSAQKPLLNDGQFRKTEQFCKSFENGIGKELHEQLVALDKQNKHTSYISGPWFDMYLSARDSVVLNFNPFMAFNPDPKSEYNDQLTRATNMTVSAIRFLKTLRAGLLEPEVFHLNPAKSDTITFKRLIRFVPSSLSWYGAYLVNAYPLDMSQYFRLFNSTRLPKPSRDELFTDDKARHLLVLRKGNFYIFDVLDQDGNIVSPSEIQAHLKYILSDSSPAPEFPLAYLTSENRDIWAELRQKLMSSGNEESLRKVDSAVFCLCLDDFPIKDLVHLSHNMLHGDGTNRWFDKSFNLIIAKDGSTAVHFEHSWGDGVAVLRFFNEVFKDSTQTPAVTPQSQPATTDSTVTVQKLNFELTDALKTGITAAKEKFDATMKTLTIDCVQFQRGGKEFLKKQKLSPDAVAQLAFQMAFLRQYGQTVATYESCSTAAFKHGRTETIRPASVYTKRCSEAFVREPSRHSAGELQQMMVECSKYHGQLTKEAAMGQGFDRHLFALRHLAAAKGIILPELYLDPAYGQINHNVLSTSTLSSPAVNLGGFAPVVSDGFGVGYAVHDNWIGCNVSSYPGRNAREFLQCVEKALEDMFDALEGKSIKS

[3] = target: T3, Carnitine O-palmitoyltransferase 2, mitochondrial (Rattus norvegicus, UniProt P18886); assay: as §1
T3 sequence (P18886 whole entry): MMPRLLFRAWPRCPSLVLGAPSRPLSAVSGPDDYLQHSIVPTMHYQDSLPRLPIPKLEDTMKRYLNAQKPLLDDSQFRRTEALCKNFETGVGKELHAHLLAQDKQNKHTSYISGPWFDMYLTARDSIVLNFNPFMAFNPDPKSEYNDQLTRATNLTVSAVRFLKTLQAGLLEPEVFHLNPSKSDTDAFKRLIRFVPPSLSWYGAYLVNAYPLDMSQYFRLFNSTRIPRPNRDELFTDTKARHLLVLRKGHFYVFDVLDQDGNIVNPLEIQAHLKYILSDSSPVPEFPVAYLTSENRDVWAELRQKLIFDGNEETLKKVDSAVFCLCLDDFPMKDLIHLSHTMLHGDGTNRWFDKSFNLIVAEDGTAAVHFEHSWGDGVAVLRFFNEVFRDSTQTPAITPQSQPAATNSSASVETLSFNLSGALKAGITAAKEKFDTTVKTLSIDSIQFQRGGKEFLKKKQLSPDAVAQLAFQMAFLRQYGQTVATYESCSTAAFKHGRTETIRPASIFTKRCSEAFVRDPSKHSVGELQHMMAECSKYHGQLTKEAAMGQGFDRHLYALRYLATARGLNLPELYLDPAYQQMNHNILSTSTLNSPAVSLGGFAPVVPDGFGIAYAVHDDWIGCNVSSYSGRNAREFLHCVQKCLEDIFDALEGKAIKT

[4] = target: T4, Carnitine O-palmitoyltransferase 1, liver isoform (Homo sapiens, UniProt P50416); assay: (§2) SUPPLEMENTARY: Inhibition of Carnitine palmitoyltransferase 1, liver isoform
T4 sequence (P50416 whole entry): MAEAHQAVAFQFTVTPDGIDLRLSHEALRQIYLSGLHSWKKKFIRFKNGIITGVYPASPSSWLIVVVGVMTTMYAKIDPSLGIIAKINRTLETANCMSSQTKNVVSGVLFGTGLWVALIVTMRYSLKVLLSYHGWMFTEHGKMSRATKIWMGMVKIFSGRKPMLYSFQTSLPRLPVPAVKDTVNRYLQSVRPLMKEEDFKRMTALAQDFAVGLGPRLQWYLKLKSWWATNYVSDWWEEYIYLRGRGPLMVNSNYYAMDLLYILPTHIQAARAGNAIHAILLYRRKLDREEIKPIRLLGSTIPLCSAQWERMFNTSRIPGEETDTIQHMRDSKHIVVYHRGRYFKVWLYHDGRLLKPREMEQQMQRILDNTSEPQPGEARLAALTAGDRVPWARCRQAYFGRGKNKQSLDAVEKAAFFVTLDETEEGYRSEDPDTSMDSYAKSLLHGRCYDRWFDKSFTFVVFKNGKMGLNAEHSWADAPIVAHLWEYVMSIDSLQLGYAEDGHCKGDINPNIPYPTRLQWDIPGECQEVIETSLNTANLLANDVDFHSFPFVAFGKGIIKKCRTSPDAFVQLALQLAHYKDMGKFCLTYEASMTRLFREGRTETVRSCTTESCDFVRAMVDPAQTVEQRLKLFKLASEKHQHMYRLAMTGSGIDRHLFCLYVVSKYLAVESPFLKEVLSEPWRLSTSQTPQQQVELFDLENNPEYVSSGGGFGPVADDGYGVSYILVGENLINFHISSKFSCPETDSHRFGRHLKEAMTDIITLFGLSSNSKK

[5] = target: T5, Carnitine O-palmitoyltransferase 1, liver isoform (Rattus norvegicus, UniProt P32198); assay: as §2
T5 sequence (P32198 whole entry): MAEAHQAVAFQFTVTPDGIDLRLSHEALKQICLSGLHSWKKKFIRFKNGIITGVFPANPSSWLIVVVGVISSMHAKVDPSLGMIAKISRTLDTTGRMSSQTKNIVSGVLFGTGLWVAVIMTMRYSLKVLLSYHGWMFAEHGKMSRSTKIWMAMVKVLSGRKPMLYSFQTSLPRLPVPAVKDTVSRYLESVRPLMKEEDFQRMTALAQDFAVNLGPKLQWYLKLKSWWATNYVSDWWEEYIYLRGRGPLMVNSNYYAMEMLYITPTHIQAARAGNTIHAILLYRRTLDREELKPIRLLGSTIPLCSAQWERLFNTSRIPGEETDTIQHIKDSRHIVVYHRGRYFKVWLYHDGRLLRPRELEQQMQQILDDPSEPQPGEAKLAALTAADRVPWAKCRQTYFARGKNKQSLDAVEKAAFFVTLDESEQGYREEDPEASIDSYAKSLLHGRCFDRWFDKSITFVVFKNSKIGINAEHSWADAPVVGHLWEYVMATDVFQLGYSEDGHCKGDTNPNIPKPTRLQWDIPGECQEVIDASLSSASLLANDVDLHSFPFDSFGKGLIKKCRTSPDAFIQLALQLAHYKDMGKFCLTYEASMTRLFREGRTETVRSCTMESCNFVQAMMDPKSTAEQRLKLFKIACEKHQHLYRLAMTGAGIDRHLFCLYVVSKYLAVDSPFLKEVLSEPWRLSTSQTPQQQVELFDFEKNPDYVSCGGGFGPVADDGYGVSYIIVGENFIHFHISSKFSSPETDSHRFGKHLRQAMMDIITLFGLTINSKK

[6] = SUPPLEMENTARY: Lyophilisation Solubility Assay (LYSA); assay type: physicochemical; conditions: read-out: Kinetic_solubility
[7] = SUPPLEMENTARY: Lipophilicity (log D) Determination by high-throughput shake-flask; assay type: physicochemical; conditions: octanol/water
[8] = SUPPLEMENTARY: PAMPA permeability assay; assay type: physicochemical; conditions: read-out: Permeability

Row | IC50 [1] | IC50 [2] | IC50 [3] | IC50 [4] | IC50 [5] | solubility kinetic [6] | logD [7] | Papp [8] | SMILES
1 | > 100000 nM | 2060 nM | 3700 nM | 252 nM | 596 nM | 22 µg/mL (≈ 58.1 µM) | 2.97 | 4.18 ×10⁻⁶ cm/s | O=C([C@H]1CCCCN1C(=O)COc1ccccc1)N1CCc2ccccc2C1
2 | > 100000 nM | 473 nM | 701 nM | 63.5 nM | 77.2 nM | 46 µg/mL (≈ 106 µM) | 2.72 | 4.71 ×10⁻⁶ cm/s | O=C([C@H]1CCCCN1C(=O)COc1ccccc1)N1Cc2ccc(C3CCOC3)cc2C1 (some centres not stated)
3 | > 100000 nM | 74300 nM | 73600 nM | 159 nM | 1300 nM | 229 µg/mL (≈ 442 µM) | 2.45 | 3.31 ×10⁻⁶ cm/s | COC[C@@H]1CCN(NC(=O)c2cccc(-c3n[nH]c([C@H]4CCCCN4C(=O)COc4ccccc4)n3)c2)C1
4 | > 100000 nM | 1940 nM | 6480 nM | 35.3 nM | 29.1 nM | 1 µg/mL (≈ 2.23 µM) | > 3 | 1.46 ×10⁻⁶ cm/s | Cc1cc(C)cc(S(=O)(=O)n2ccc3ccc(C(=O)Nc4ccc(C(=O)O)cc4)cc32)c1
5 | 5110 nM | 1720 nM | 5740 nM | 131 nM | 166 nM | 380 µg/mL (≈ 684 µM) | 0.42 | 1.45 ×10⁻⁶ cm/s | COc1ccc(Cl)cc1S(=O)(=O)N1CCOc2c(F)cc(C(=O)Nc3ccc(C(=O)O)c(Cl)c3)cc21
6 | 1200 nM | > 100000 nM | > 100000 nM | 39.3 nM | 59.2 nM | 55 µg/mL (≈ 121 µM) | 1.48 | 0.49 ×10⁻⁶ cm/s | COc1ccc(Cl)cc1Cc1c[nH]c2ccc(C(=O)Nc3nc(CC(=O)O)cs3)cc12
7 | > 100000 nM | > 100000 nM | > 100000 nM | 166 nM | 448 nM | 39 µg/mL (≈ 106 µM) | 2.62 | 6.78 ×10⁻⁶ cm/s | Cc1cc(-c2nc([C@H]3CCCCN3C(=O)COc3ccccc3)no2)no1
8 | > 100000 nM | > 100000 nM | > 100000 nM | 27 nM | 22.2 nM | 8 µg/mL (≈ 16.8 µM) | 1.94 | 0.91 ×10⁻⁶ cm/s | Cc1cc(C)cc(S(=O)(=O)c2nn(CCC(=O)O)c3ccc(C(=O)Nc4ccccc4)cc23)c1
9 | 35500 nM | 24300 nM | 33600 nM | 90.2 nM | 238 nM | 109 µg/mL (≈ 270 µM) | 2.36 | 3.53 ×10⁻⁶ cm/s | O=C(COc1ccccc1)N1CCCC[C@@H]1c1noc(-c2cnc3[nH]cnc3c2)n1
10 | > 100000 nM | 45300 nM | 66000 nM | 286 nM | 865 nM | 111 µg/mL (≈ 293 µM) | 1.92 | 3.97 ×10⁻⁶ cm/s | Nc1ccc(-c2n[nH]c([C@H]3CCCCN3C(=O)COc3ccccc3)n2)cn1
11 | 12000 nM | 38600 nM | > 100000 nM | 15.1 nM | 10.1 nM | 133 µg/mL (≈ 252 µM) | 0.98 | 0.27 ×10⁻⁶ cm/s | COc1ccc(Cl)cc1S(=O)(=O)c1cn(CCCC(=O)O)c2ccc(C(=O)Nc3ccccc3)cc12
12 | > 100000 nM | > 100000 nM | > 100000 nM | 181 nM | 106 nM | 20 µg/mL (≈ 56.3 µM) | 3.08 | 4.38 ×10⁻⁶ cm/s | O=C(COc1ccccc1)N1CCCC[C@@H]1c1noc(C2CCCC2)n1
13 | > 100000 nM | > 100000 nM | > 100000 nM | 88.8 nM | 62.1 nM | < 1 µg/mL | 3.09 | 3.86 ×10⁻⁶ cm/s | O=C1CCCN1c1cccc(-c2noc([C@H]3CCCCN3C(=O)COc3ccccc3)n2)c1
14 | 3530 nM | 591 nM | 967 nM | 66.1 nM | 157 nM | 311 µg/mL (≈ 581 µM) | 0.66 | 1.52 ×10⁻⁶ cm/s | COc1ccc(Cl)cc1S(=O)(=O)N1CCc2c(C)cc(C(=O)Nc3ccc(C(=O)O)c(Cl)c3)cc21

— ChEMBL document CHEMBL3431459, “Roche carnitine palmitoyltransferase modulator screening data (supplementary data associated with the publication CHEMBL2216752)”
